Assay results reported in ChEMBL document CHEMBL5104111, “Boron-Containing heterocycles as promising pharmacological agents” (Bioorg Med Chem, 2022).
Values after ≈ are worked out from the molar mass of the structure shown.

Test system: Mycobacterium tuberculosis variant bovis
Test: Antibacterial activity against Mycobacterium bovis BCG assessed as bacterial growth inhibition
Assay type: functional

Compound	MIC
O=C(NCCOCCOCCNC(=O)c1ccc2c(c1)B(O)OC2)c1ccc2c(c1)COB2O	0.39 µM (≈ 0.183 µg/mL)
O=C(NCCCOCCOCCOCCCNC(=O)c1ccc2c(c1)B(O)OC2)c1ccc2c(c1)COB2O	0.39 µM (≈ 0.211 µg/mL)
O=C(NCCNC(=O)c1ccc2c(c1)B(O)OC2)c1ccc2c(c1)B(O)OC2	0.78 µM (≈ 0.296 µg/mL)
